Assays:
HDAC6 human recombinant = biological target: T1, HDAC6 human recombinant (Homo sapiens, UniProt Q9UBN7); experiment: HDAC6 enzyme activity inhibition (fluorimetric, in vitro); assay type: biochemical; conditions: 37° C., 60 minutes; tested at 0.1, 1, 10, 100 and 1000 nM
T1 construct: purchased Calbiochem 382180
T1 sequence (Q9UBN7 1-1215): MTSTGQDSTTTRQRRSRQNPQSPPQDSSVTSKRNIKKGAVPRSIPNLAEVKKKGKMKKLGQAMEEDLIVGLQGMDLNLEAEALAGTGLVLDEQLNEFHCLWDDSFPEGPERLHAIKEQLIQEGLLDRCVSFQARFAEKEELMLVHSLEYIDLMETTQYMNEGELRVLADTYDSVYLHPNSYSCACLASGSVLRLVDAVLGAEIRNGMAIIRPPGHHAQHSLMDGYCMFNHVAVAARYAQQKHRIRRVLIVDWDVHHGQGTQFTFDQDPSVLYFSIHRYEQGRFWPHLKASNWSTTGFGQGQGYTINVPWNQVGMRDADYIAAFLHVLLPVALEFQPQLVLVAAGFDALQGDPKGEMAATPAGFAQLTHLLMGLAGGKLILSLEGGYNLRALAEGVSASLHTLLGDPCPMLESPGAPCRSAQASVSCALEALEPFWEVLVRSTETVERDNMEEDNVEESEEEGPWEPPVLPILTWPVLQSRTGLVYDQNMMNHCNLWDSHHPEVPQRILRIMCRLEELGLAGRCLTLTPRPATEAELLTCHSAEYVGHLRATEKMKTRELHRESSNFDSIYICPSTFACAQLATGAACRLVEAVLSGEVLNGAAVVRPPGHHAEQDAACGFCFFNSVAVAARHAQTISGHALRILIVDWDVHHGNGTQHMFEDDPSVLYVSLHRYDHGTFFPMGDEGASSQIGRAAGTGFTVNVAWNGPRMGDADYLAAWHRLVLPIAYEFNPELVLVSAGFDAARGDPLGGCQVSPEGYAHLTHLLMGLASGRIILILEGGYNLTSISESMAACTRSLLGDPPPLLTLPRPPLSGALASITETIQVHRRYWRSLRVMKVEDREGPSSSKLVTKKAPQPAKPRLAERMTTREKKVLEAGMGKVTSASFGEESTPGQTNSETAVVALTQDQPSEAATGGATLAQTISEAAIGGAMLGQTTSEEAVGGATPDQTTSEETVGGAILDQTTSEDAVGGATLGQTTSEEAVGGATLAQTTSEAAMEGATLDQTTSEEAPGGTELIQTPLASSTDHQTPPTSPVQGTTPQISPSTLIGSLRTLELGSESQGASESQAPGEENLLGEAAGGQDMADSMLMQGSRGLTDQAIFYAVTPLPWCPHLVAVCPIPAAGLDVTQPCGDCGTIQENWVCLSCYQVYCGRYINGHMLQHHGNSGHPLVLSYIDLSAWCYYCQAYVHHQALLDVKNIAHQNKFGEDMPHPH
Description: (§1) 1. Experiment on Activities in HDAC Enzymes (HDAC1 and HDAC6)
(§2) Assays were performed using a HDAC1 fluorimetric drug discovery assay kit (Enzolifesciences: BML-AK511) and a HDAC6 human recombinant (Calbiochem: 382180). The assay mixture of the kit was treated with each of the compounds of the Examples at concentrations 100, 1000 and 10000 nM for HDAC1 assay and 0.1, 1, 10, 100 and 1000 nM for HDAC6 assay. The treated assay mixture was allowed to react at 37° C. for 60 minutes, and then was treated with a developer and allowed to stand at 37° C. for 30 minutes, followed by quantification of the fluorescence. In Table 17, lower HDAC6 values (μM) indicate higher HDAC6 inhibitory activities of the compounds. Also, because selective HDAC6 inhibitors should not inhibit HDAC1 (μM), higher HDAC1 values indicate higher HDAC6 selectivity of the compounds.

HDAC1 = biological target: T2, HDAC1 (Homo sapiens, UniProt Q13547); experiment: HDAC1 enzyme activity inhibition (HDAC1 fluorimetric drug discovery assay kit); assay type: biochemical; conditions: 37° C., 60 minutes; tested at 100, 1000 and 10000 nM
T2 construct: purchased Enzolifesciences BML-AK511
Description: as §1, §2

T2 sequence (Q13547 whole entry): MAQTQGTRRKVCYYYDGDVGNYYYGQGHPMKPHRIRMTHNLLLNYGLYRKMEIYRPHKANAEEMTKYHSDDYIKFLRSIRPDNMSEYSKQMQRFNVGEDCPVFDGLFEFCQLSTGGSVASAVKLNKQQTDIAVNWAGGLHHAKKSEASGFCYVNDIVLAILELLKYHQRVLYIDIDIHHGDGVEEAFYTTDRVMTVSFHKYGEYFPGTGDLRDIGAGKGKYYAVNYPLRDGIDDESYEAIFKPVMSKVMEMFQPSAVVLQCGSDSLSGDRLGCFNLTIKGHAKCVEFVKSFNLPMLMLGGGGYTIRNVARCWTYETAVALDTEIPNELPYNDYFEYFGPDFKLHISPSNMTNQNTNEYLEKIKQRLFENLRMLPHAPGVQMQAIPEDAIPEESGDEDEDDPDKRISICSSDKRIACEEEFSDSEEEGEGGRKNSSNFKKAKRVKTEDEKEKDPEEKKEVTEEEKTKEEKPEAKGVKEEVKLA

IC50 (HDAC6 human recombinant) | IC50 (HDAC1) | SMILES
0.3 µM | > 10 µM | CCCc1c(Cc2ccc(C(=O)NO)cc2)c2ccccc2n1CC1CCN(CC(C)(C)F)CC1 [Compound 602, 4-((1-((1-(2-fluoro-2-methylpropyl)piperidin-4-yl)methyl)-2-propyl-1H-indol-3-yl)methyl)-N-hydroxybenzamide]
0.007 µM | – | Cc1c(Cc2ccc(C(=O)NO)cc2)c2ccccc2n1CC1CCN(CC2(F)CCOCC2)CC1 [Compound 584, 4-((1-((1-((4-Fluoro-tetrahydro-2H-pyran-4-yl)methyl)piperidin-4-yl)methyl)-2-methyl-1H-indol-3-yl)methyl)-N-hydroxybenzamide]
0.114 µM | – | Cc1c(Cc2ccc(C(=O)NO)cc2)c2ccccc2n1CC1CN(CC(C)(C)F)C1 [Compound 750, 4-((1-((1-(2-Fluoro-2-methylpropyl)azetidin-3-yl)methyl)-2-methyl-1H-indol-3-yl)methyl)-N-hydroxybenzamide]
0.084 µM | 7.75 µM | Cc1c(Cc2ccc(C(=O)NO)cc2)c2ccccc2n1CCN1CCCCC1 [Compound 585]
1.19 µM | > 10 µM | Cc1c(Cc2ccc(C(=O)NO)cc2)c2ccccc2n1CC1CCN(CC2(C(F)(F)F)CCC2)CC1 [Compound 728, N-hydroxy-4-((2-methyl-1-((1-((1-(trifluoromethyl)cyclobutyl)methyl)piperidin-4-yl)methyl)-1H-indol-3-yl)methyl)benzamide]
0.14 µM | 3.88 µM | CC(C)(F)CN1CCC(Cn2cc(Cc3ccc(C(=O)NO)cc3)c3cccnc32)CC1 [Compound 748, 4-((1-((1-(2-Fluoro-2-methylpropyl)piperidin-4-yl)methyl)-1H-pyrrolo[2,3-b]pyridin-3-yl)methyl)-N-hydroxybenzamide]
0.14 µM | 4.38 µM | Cc1c(Cc2ccc(C(=O)NO)cc2)c2ccccc2n1CCN1CCOCC1 [Compound 153, N-hydroxy-4-((2-methyl-1-(2-morpholinoethyl)-1H-indol-3-yl)methyl)benzamide]
0.246 µM | > 10 µM | Cc1c(Cc2ccc(C(=O)NO)cc2)c2ccccc2n1CC1CCN(CC(C)(C)F)C1 (centres unmarked) [Compound 713, 4-((1-((1-(2-Fluoro-2-methylpropyl)pyrrolidin-3-yl)methyl)-2-methyl-1H-indol-3-yl)methyl)-N-hydroxybenzamide]
0.089 µM | – | Cc1c(Cc2ccc(C(=O)NO)cc2)c2ccccc2n1CC1CCN(Cc2ccncc2)CC1 [Compound 621, N-hydroxy-4-((2-methyl-1-((1-(pyridin-4-ylmethyl)piperidin-4-yl)methyl)-1H-indol-3-yl)methyl)benzamide]
0.334 µM | 6.1 µM | CC(C)(F)CN1CCC(Cn2cc(C(O)c3ccc(C(=O)NO)cc3)c3cccnc32)CC1 (centres unmarked) [Compound 747, 4-((1-((1-(2-Fluoro-2-methylpropyl)piperidin-4-yl)methyl)-1H-pyrrolo[2,3-b]pyridin-3-yl)(hydroxy)methyl)-N-hydroxybenzamide]
0.087 µM | – | Cc1c(Cc2ccc(C(=O)NO)cc2F)c2ccccc2n1CC1CCN(CC(C)(C)F)CC1 [Compound 562, 3-Fluoro-4-((1-((1-(2-fluoro-2-methylpropyl)piperidin-4-yl)methyl)-2-methyl-1H-indol-3-yl)methyl)-N-hydroxybenzamide]
0.236 µM | – | Cc1c(Cc2ccc(C(=O)NO)cn2)c2ccccc2n1CCN1CCOCC1 [Compound 244, N-hydroxy-6-((2-methyl-1-(2-morpholinoethyl)-1H-indol-3-yl)methyl)nocotinamide]
0.024 µM | – | Cc1c(Cc2ccc(C(=O)NO)cc2)c2ccccc2n1CC1CCN(CC2(F)CCN(C(=O)NC(C)C)CC2)CC1 [Compound 695, 4-Fluoro-4-((4-((3-(4-(hydroxycarbamoyl)benzyl)-2-methyl-1H-indol-1-yl)methyl)piperidin-1-yl)methyl)-N-isopropylpiperidine-1-carboxamide]
0.34 µM | – | Cc1c(Cc2ccc(C(=O)NO)cn2)c2ccccc2n1CCN1CCN(C)CC1 [Compound 243, N-hydroxy-6-((2-methyl-1-(2-(4-methylpeperazin-1-yl)ethyl)-1H-indol-3-yl)methyl)nicotinamide]
0.15 µM | – | CC(C)(F)CN1CCC(Cn2cc(Cc3ccc(C(=O)NO)cc3)c3ccccc32)CC1 [Compound 614, 4-((1-((1-(2-Fluoro-2-methylpropyl)piperidin-4-yl)methyl)-1H-indol-3-yl)methyl)-N-hydroxybenzamide]
0.068 µM | – | Cc1c(Cc2ccc(C(=O)NO)cc2)c2ccccc2n1CCN1CCCC(F)C1 (centres unmarked) [Compound 550, 4-((1-(2-(3-fluoropiperidin-1-yl)ethyl)-2-methyl-1H-indol-3-yl)methyl)-N-hydroxybenzamide]
0.352 µM | – | CC(C)(F)CN1CCC(Cn2c(C3=CCOCC3)c(Cc3ccc(C(=O)NO)cc3)c3ccccc32)CC1 [Compound 627, 4-((2-(3,6-Dihydro-2H-pyran-4-yl)-1-((1-(2-fluoro-2-methylpropyl)piperidin-4-yl)methyl)-1H-indol-3-yl)methyl)-N-hydroxybenzamide]
0.821 µM | – | CC(C)(F)CN1CCC(Cn2c(-c3ccccc3)c(Cc3ccc(C(=O)NO)cc3)c3ccccc32)CC1 [Compound 616, 4-((1-((1-(2-Fluoro-2-methylpropyl)piperidin-4-yl)methyl)-2-phenyl-1H-indol-3-yl)methyl)-N-hydroxybenzamide]
0.273 µM | – | Cc1c(Cc2ccc(C(=O)NO)cc2)c2ccccc2n1CC1CCN(CCc2ccccc2)CC1 [Compound 559, N-hydroxy-4-((2-methyl-1-((1-phenethylpiperidin-4-yl)methyl)-1H-indol-3-yl)methyl)benzamide]
0.171 µM | – | CC(C)(F)CN1CCC(Cn2cc(Cc3ccc(C(=O)NO)cc3)c3c(F)cccc32)CC1 [Compound 707, 4-((4-Fluoro-1-((1-(2-fluoro-2-methylpropyl)piperidin-4-yl)methyl)-1H-indol-3-yl)methyl)-N-hydroxybenzamide]
0.307 µM | – | Cc1c(Cc2ccc(C(=O)NO)cc2)c2ccccc2n1CCC1CCN(CC(C)(C)F)CC1 [Compound 563, 4-((1-(2-(1-(2-Fluoro-2-methylpropyl)piperidin-4-yl)ethyl)-2-methyl-1H-indol-3-yl)methyl)-N-hydroxybenzamide]
0.09 µM | – | Cc1c(Cc2ccc(C(=O)NO)cc2)c2ccccc2n1CC1CCN(Cc2ccc(F)cc2)CC1 [Compound 622, 4-((1-((1-(4-Fluorobenzyl)piperidin-4-yl)methyl)-2-methyl-1H-indol-3-yl)methyl)-N-hydroxybenzamide]
0.432 µM | – | CC(C)(F)CN1CCC(Cn2cc(Cc3ccc(C(=O)NO)cc3)c3ccc(F)cc32)CC1 [Compound 708, 4-((6-Fluoro-1-((1-(2-fluoro-2-methylpropyl)piperidin-4-yl)methyl)-1H-indol-3-yl)methyl)-N-hydroxybenzamide]
0.108 µM | – | Cc1c(Cc2ccc(C(=O)NO)cc2)c2ccccc2n1CC1CCN(Cc2ccccc2)CC1 [Compound 556, 4-((1-((1-Benzylpiperidin-4-yl)methyl)-2-methyl-1H-indol-3-yl)methyl)-N-hydroxybenzamide]
0.082 µM | – | Cc1c(Cc2ccc(C(=O)NO)cc2)c2ccccc2n1CCN1CCC[C@H]1CF [Compound 551, (S)-4-((1-(2-(2-(fluoromethyl)pyrrolidin-1-yl)ethyl)-2-methyl-1H-indol-3-yl)methyl)-N-hydroxybenzamide]
